Assays:
SCLC strain SHP-77 [1] = assay: Colorimetric tetrazolium (MTT) assay for cell survival, SCLC strain SHP-77; format: cell-based, human
Outline: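 MTT assay: cells seeded overnight, treated in triplicate across a concentration range for 4 days at 37 °C, 5% CO2. On day 5, MTT was added for 4 h; formazan was dissolved in acidified isopropanol and absorbance read.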

[2] = tested on: bradykinin response of isolated guinea pig ileum; assay: Anti-bradykinin activity on isolated guinea pig ileum; settings: Table 1; higher numbers indicate higher potency
Outline: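 Terminal ileum segments (25 mm) from overnight-fasted male Hartley guinea pigs, in Krebs' solution gassed with 95% O2/5% CO2 under 1 g tension, equilibrated 1 h. Bradykinin concentration-effect curves constructed without and with test compounds.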

SCLC strain SHP-77 [3] = assay: Inhibition of tumor growth in vivo in nude mice, SCLC strain SHP-77; settings: dose of 5 mg/kg/day
Description: Representative peptide and non-peptide compounds having high in vitro cytotoxic activity were tested against implanted tumors in vivo. Athymic nude mice were implanted subcutaneously with either single cell suspensions (2 million SCLC cells or 1 million NSCLC cells) or with small fragments (3×3 mm) of tumors minced from previously grown nude mouse heterotransplants. On the seventh day after tumor implantation groups of 5 mice bearing implants were injected intraperitoneally daily with the compounds being tested at 1, 5, or 10 mg/kg/day; control animals were injected with an equal volume of isotonic saline. Tumor size was measured with a caliper three times per week. Tumor volume was calculated by the formula: Volume (cc)=π×(length)×(width)^2/6

DU14 = assay: Cytotoxicity in vitro (MTT), prostate cancer cell line DU14; format: cell-based, human
Description: (§1) In general, Anti-bradykinin activity was determined by the classical guinea pig ileum assay and on Chinese hamster ovary (CHO) cells expressing cloned human bradykinin B2 receptors. Anti-tumor activity was determined on cultured human cancer cell lines using the standard tetrazolium (MTT) assay.
(§2) Cell growth and survival were measured by a rapid colorimetric assay based on the tetrazolium salt MTT (3-(4,5-dimethylthiazol-2-yl)-2,5-diphenyl tetrazolium bromide) (Mosmann, J Immunol. Methods 65: 55–63, 1983, with minor modifications). Briefly, 1,000 normal lung fibroblasts or normal epithelial BEAS-2B cells, 1,000 or 5,000 viable non-SCLC cells or 10,000 viable SCLC cells were plated in 100 μL of growth medium in 96-well flat-bottomed microtiter plates. Cells were incubated overnight to allow recovery. Compounds to be tested were added to the cells in triplicate in a range of concentrations and the cells were incubated at 37° C., 5% CO2, with 100% humidity. Control cells were treated in the same way without antagonists. […] Plates were incubated for 4 days, allowing sufficient time for cell replication and compound-induced cell death to occur. On day 5, 25 μL of a 2 mg/mL solution of MTT (Sigma) dissolved in RMPI-1640was added to each well. The plate was incubated for 4 h at 37° C. The supernate was removed and the blue formazan complex was dissolved by adding 100 μL of 0.02 N HCl in 75% isopropanol to all wells. Absorbance was immediately determined using a scanning multiwell plate reader. B9870 caused 50% cell death at a concentration of 0.15 μM under these conditions.

TSU = assay: Cytotoxicity in vitro (MTT), prostate cancer cell line TSU; format: cell-based, human
Description: as §1, §2

LNCa = assay: Cytotoxicity in vitro (MTT), prostate cancer cell line LNCa; format: cell-based, human
Description: as §1, §2

PC-3 = assay: Cytotoxicity in vitro (MTT), prostate cancer cell line PC-3; format: cell-based, human
Description: as §1, §2

PPC1 = assay: Cytotoxicity in vitro (MTT), prostate cancer cell line PPC1; format: cell-based, human
Description: as §1, §2

SUIM-(DArg-Arg-Pro-Hyp-Gly-Igl-Ser-DIgl-Oic-Arg) [B9870-2, reference compound]
EC50 (SCLC strain SHP-77 [1]; MTT assay, text of Example XIX, read-out: concentration causing 50% cell death): 150 nM | MTT: ED50 for killing of SCLC strain SHP-77 in vitro (SCLC strain SHP-77 [1]; Table 1, SHP-77, MTT, 4 days): 150 nM | ED50 for cytotoxic activity, SCLC SHP-77 (SCLC strain SHP-77 [1]; Table 5, included for comparison): 150 nM | GPI: pA2 for bradykinin antagonist activity on isolated guinea pig ileum [2]: 8.4 | inhibition of growth of the SCLC line SHP-77 (SCLC strain SHP-77 [3]): marked inhibition of growth | ED50 for cytotoxic activity, DU14 (DU14): 80 nM | ED50 for cytotoxic activity, TSU (TSU): 6500 nM | ED50 for cytotoxic activity, LNCa (LNCa): 3700 nM | ED50 for cytotoxic activity, PC-3 (PC-3): 3200 nM | ED50 for cytotoxic activity, PPC1 (PPC1): 4300 nM
